Data reported in patent US9439425B2, “Plant disease control composition and plant disease control method” (Sumitomo Chemical Company, Limited, priority 2012, dated 2016).

tested on: powdery mildew; test: Test Example 1: foliar spray on potted wheat, powdery mildew inoculation, control value from onset area rate; assay type: in vivo, Wheat (Shirogane); details: treatment concentration 0.1 ppm, single agent; foliage spray on wheat, powdery mildew inoculated, 7 days at 21° C.
Method: A plastic pot was stuffed with a sand soil. Wheat (Shirogane) was sown thereon, allowed to grow in a greenhouse at 24° C. for 7 days, transferred to a greenhouse at 15° C., and then allowed to grow for 14 days. A water-diluted solution of the present compound (I) and a water-diluted solution of pyriofenone, metrafenone, cyflufenamid, quinoxyfen or proquinazid were mixed to prepare an agent solution containing prescribed amounts of the present compound (I) and, pyriofenone, metrafenone, cyflufenamid, quinoxyfen or proquinazid. The agent solution was sprayed to the foliage of the wheat, then the plant was air-dried, and then a powdery mildew was inoculated. After the inoculation, the plant was allowed to stand at 21° C. for 7 days and then an onset area rate was examined visually and a control value was calculated using the following formula. Moreover, the present compound (I), pyriofenone, metrafenone, cyflufenamid, quinoxyfen or proquinazid was diluted with water to prepare water-diluted solutions with a prescribed concentration, the same test was carried out for each of the solutions and control values were calculated. Control value (%)=100×(A−B)/A A: an onset area rate of the non-treated group B: an onset area rate of the treated group Results are shown in Table 1.

Q: For `C=CCSC(=O)n1c(N)c(-c2ccccc2C)c(=O)n1C(C)C` [Present compound (I)], which Control value is on record?
A: 3%

same assay, conditions: treatment concentration 0.15 ppm, single agent; foliage spray on wheat, powdery mildew inoculated, 7 days at 21° C.

Q: `O=C(Cc1ccccc1)N/C(=N\OCC1CC1)c1c(C(F)(F)F)ccc(F)c1F` [Cyflufenamid] was tested. Which Control value did it give?
A: 52%

Q: Which Control value does the source give for `COc1cc(C)c(C(=O)c2c(OC)ccc(Br)c2C)c(OC)c1OC` [Metrafenone] here?
A: 71%

Q: Which Control value does the source give for `CCCOc1nc2ccc(I)cc2c(=O)n1CCC` [Proquinazid] here?
A: 74%

Q: How did the Control value turn out when `COc1cc(C)c(C(=O)c2c(OC)ncc(Cl)c2C)c(OC)c1OC` [Pyriofenone] was run?
A: 69%

Q: How did the Control value turn out when `Fc1ccc(Oc2ccnc3cc(Cl)cc(Cl)c23)cc1` [Quinoxyfen] was run?
A: 71%
